Broadly, the EC50 is the concentration needed to bring the measured effect to its halfway point. What is called IC50 is the concentration at which inhibition is half-maximal.

In one assay the target is rat mGlu5 (Rattus norvegicus (Rat), UniProt P31424). The assay is described as follows: mGlu5 Ca2+ flux assay. Particulars: for Fold selectivity (mGlu3 vs. mGlu5): ratio of rat mGlu5 EC50 or IC50 to rat mGlu3 IC50; for Emax at 30 µM: PAM, amplitude of response at 30 μM test compound as % of maximal response to glutamate, read-out: rat mGlu5 Glu max (%); for mGlu5 Glu max: response at 30 μM compound as percentage of maximal glutamate response. The class given is cell-based. Summed up: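 Ca2+ flux read kinetically (FDSS7000) after overnight culture at 37° C/5% CO2 and a 5 min room-temperature buffer step following dye removal. Signals expressed per well as F/F0 and normalized to peak glutamate response; EC50 fitted by free 4-parameter logistic, three replicates per concentration equally weighted.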
Sequence of rat mGlu5 (P31424 21-1203): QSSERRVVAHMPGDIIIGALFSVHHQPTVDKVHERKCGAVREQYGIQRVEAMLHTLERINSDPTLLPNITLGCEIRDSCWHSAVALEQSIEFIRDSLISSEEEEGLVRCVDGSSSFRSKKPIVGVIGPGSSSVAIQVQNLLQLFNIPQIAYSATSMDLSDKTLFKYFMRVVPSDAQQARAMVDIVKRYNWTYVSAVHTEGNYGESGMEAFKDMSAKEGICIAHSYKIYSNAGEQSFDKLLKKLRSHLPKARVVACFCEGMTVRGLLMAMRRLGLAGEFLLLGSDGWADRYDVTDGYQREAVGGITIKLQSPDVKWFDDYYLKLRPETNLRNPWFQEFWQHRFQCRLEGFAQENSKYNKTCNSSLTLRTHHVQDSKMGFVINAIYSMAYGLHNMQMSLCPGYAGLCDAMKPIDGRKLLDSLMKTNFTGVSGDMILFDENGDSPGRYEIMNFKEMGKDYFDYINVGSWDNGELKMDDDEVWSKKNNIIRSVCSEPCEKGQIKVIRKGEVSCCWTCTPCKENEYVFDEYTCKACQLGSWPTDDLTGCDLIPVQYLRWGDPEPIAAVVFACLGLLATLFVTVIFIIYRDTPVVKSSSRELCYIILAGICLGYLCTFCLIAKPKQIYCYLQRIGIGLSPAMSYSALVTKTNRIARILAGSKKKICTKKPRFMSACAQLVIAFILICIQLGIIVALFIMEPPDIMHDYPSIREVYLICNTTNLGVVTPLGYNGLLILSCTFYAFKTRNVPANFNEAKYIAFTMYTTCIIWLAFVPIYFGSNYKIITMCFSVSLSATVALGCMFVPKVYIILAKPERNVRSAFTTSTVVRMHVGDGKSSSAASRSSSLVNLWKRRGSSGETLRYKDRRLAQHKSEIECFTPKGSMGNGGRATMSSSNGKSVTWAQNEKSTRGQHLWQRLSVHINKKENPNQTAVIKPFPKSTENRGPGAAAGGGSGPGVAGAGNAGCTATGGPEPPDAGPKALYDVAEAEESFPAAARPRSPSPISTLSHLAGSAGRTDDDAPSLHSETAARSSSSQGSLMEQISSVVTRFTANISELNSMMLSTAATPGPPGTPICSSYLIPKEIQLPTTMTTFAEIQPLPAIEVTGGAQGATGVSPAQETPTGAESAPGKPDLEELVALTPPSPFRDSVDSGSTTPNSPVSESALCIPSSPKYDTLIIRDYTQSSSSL
(In general: Calcium flux is commonly read through the fluorescence of an indicator in the cells.)

Another assay deals with rat mGlu3 (Rattus norvegicus (Rat), UniProt P31422). The assay is described as follows: mGlu3 Ca2+ flux assay. The conditions noted are these: for remaining activity at 30 µM: amplitude of response at 30 μM test compound as % of maximal response to glutamate, read-out: rat mGlu3 Glu max (%); for mGlu3 Glu max: response at 30 μM compound as percentage of maximal glutamate response. The class given is cell-based. Summed up:
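This calcium mobilization assay used rat mGlu3 cells cultured overnight (37° C., 5% CO2) and read on the FDSS7000 after a 10 minute room-temperature incubation in 20 μL assay buffer. Each of 360 readings per well was divided by its initial value (F/F0). Potency came from fitting normalized responses against log concentration with an unconstrained 4 parameter logistic equation, weighting triplicate points equally.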

Where [1] appears, read: read-out: rat mGlu5 EC50 or IC50.
Where [2] appears, read: NAM potency, decrease of glutamate EC80 response, >30,000 = no measurable activity, >10,000 = no plateau, read-out: rat mGlu3 IC50.
The mark [3] stands for this setting: Table 2 compounds with X = O, read-out: mGlu5 EC50.
The mark [4] stands for this setting: Table 2 compounds with X = O, read-out: mGlu3 IC50.

Like-named read-outs stand apart in the source and are kept apart here. A value given as a limit tells only on which side of the number the result lay.

Sequence of rat mGlu3 (P31422 23-879): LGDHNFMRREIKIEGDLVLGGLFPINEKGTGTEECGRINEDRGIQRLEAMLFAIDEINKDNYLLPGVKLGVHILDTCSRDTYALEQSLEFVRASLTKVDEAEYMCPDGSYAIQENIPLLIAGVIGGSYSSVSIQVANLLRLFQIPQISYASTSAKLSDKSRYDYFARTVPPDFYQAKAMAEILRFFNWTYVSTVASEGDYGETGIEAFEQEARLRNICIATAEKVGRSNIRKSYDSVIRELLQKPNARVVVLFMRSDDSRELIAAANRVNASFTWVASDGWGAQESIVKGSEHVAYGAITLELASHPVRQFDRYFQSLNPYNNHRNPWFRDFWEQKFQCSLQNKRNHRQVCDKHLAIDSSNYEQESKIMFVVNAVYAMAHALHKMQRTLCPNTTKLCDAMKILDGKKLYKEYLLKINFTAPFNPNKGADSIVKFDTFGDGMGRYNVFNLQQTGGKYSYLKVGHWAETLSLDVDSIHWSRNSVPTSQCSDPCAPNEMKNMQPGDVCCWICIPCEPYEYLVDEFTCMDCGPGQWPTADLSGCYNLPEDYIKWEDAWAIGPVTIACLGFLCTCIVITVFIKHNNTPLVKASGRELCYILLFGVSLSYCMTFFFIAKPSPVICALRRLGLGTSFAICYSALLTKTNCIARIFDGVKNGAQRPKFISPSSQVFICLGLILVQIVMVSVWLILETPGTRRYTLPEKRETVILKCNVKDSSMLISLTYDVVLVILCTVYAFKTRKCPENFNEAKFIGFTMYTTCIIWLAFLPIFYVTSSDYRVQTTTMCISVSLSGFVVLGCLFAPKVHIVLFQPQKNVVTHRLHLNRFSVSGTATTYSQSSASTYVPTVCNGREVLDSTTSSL

Consider `Cc1cccc(NCc2cc3n(n2)[C@H](C)CN(c2ccc(F)cc2)C3=O)c1` [Compound 50, (R)-5-(4-fluorophenyl)-7-methyl-2-((m-tolylamino)methyl)-6,7-dihydropyrazolo[1,5-a]pyrazin-4(5H)-one], for which the “Fold selectivity (mGlu3 vs. mGlu5)” value at rat mGlu5 was greater than 9.8. Also, on rat mGlu5 (setting [1]), the EC50 was greater than 30000 nM. Further, the IC50 at rat mGlu3 (setting [2]) was 3050 nM. In addition, the remaining activity at 30 µM at rat mGlu3 worked out at 0.09%.
`O=C1c2cc(CNc3ccc(OC(F)F)cc3F)nn2CCN1c1cccc(Cl)c1` [Compound 150, 5-(3-chlorophenyl)-2-(((4-(difluoromethoxy)-2-fluorophenyl)amino)methyl)-6,7-dihydropyrazolo[1,5-a]pyrazin-4(5H)-one]: the “Fold selectivity (mGlu3 vs. mGlu5)” value on rat mGlu5 was greater than 21. In addition, the EC50 at rat mGlu5 (setting [1]) is greater than 30000 nM. For the same compound, the IC50 on rat mGlu3 (setting [2]) turned out to be 1390 nM. Moreover, at rat mGlu3, the remaining activity at 30 µM was found to be 2.97%.
Take `C[C@H]1CN(c2ccc(F)cc2)C(=O)c2cc(CNc3ccc(F)cc3)nn21` [Compound 57, (S)-5-(4-fluorophenyl)-2-(((4-fluorophenyl)amino)methyl)-7-methyl-6,7-dihydropyrazolo[1,5-a]pyrazin-4(5H)-one]: at rat mGlu5, the Emax at 30 µM turned out to be 56.7% and the “Fold selectivity (mGlu3 vs. mGlu5)” value was 2.38. Besides, the EC50 on rat mGlu5 (setting [1]) was determined as 5530 nM. Moreover, the IC50 on rat mGlu3 (setting [2]) is 2320 nM. Also, the remaining activity at 30 µM at rat mGlu3 turned out to be 0.96%.
With `O=C1c2cc(COc3cccc(F)c3)nn2CCN1c1ccc(F)cc1` [drawing 31 X = O, reference compound], on rat mGlu5 (setting [3]), the EC50 turned out to be 192 nM. At rat mGlu5 (Table 2 compounds with X = O), the “mGlu5 Glu max” value is on record as 69%. Moreover, at rat mGlu3 (setting [4]), the IC50 was 132 nM. The “mGlu3 Glu max” value at rat mGlu3 (Table 2 compounds with X = O) is reported as 1%.
With `CCc1ccc(NCc2cc3n(n2)CCN(c2ccc(F)cc2)C3=O)cc1` [Compound 22, 2-(((4-ethylphenyl)amino)methyl)-5-(4-fluorophenyl)-6,7-dihydropyrazolo[1,5-a]pyrazin-4(5H)-one], at rat mGlu5, the “Fold selectivity (mGlu3 vs. mGlu5)” value is greater than 19. For the same compound, the EC50 on rat mGlu5 (setting [1]) was greater than 30000 nM. The IC50 at rat mGlu3 (setting [2]) is 1550 nM. Also, at rat mGlu3, the remaining activity at 30 µM was -11%.
The like results for `O=C1c2cc(CNc3ncccc3C(F)(F)F)nn2CCN1c1ccc(F)cc1` [Compound 162, 5-(4-fluorophenyl)-2-(((3-(trifluoromethyl)pyridin-2-yl)amino)methyl)-6,7-dihydropyrazolo[1,5-a]pyrazin-4(5H)-one] were, in that order, greater than 7.8, greater than 30000 nM, 3840 nM and 0.79%.
For `O=C1c2cc(COc3ccccc3)nn2CCN1c1ccc(F)cc1` [drawing 29 X = O, reference compound], the EC50 on rat mGlu5 (setting [3]) was 44 nM. Besides, the “mGlu5 Glu max” value on rat mGlu5 (Table 2 compounds with X = O) stood at 79%. Also, the IC50 on rat mGlu3 (setting [4]) was found to be 278 nM. In addition, the “mGlu3 Glu max” value at rat mGlu3 (Table 2 compounds with X = O) was found to be 2%.
As for `C[C@@H]1CN(c2ccc(F)cc2)C(=O)c2cc(CNc3ccccc3)nn21` [Compound 40, (R)-5-(4-fluorophenyl)-7-methyl-2-((phenylamino)methyl)-6,7-dihydropyrazolo[1,5-a]pyrazin-4(5H)-one], on rat mGlu5, the Emax at 30 µM was determined as 34.4% and the “Fold selectivity (mGlu3 vs. mGlu5)” value is given as 3.49. The EC50 at rat mGlu5 (setting [1]) came to 4810 nM. Further, on rat mGlu3 (setting [2]), the IC50 came out at 1380 nM. Moreover, the remaining activity at 30 µM on rat mGlu3 was 5.15%.
With `C[C@H]1CN(c2ccc(F)cc2)C(=O)c2cc(CNc3cccc(OC(F)F)c3)nn21` [Compound 55, (S)-2-(((3-(difluoromethoxy)phenyl)amino)methyl)-5-(4-fluorophenyl)-7-methyl-6,7-dihydropyrazolo[1,5-a]pyrazin-4(5H)-one], on rat mGlu5, the Emax at 30 µM is 28.8% and the “Fold selectivity (mGlu3 vs. mGlu5)” value is greater than 5.9. The EC50 at rat mGlu5 (setting [1]) was greater than 10000 nM. The IC50 on rat mGlu3 (setting [2]) amounted to 1670 nM. The remaining activity at 30 µM on rat mGlu3 worked out at 1.85%.
As for `COc1cccc(N(C)Cc2cc3n(n2)CCN(c2ccc(F)cc2)C3=O)c1` [Compound 88, 5-(4-fluorophenyl)-2-(((3-methoxyphenyl)(methyl)amino)methyl)-6,7-dihydropyrazolo[1,5-a]pyrazin-4(5H)-one], the “Fold selectivity (mGlu3 vs. mGlu5)” value at rat mGlu5 was greater than 29. Besides, on rat mGlu5 (setting [1]), the EC50 is greater than 30000 nM. On rat mGlu3 (setting [2]), the IC50 is 1020 nM. Moreover, the remaining activity at 30 µM on rat mGlu3 stood at 0.55%.
For `CCCN(Cc1cc2n(n1)CCN(c1ccc(F)c(F)c1)C2=O)c1ccc(OC)cc1` [Compound 167, 5-(3,4-Difluorophenyl)-2-(((4-methoxyphenyl)(propyl)amino)methyl)-6,7-dihydropyrazolo[1,5-a]pyrazin-4(5H)-one], the “Fold selectivity (mGlu3 vs. mGlu5)” value on rat mGlu5 is reported as 8.06. At rat mGlu5 (setting [1]), the EC50 is greater than 30000 nM. Moreover, at rat mGlu3, the remaining activity at 30 µM stood at 1.32%. Besides, the IC50 on rat mGlu3 (read-out: rat mGlu3 IC50) is 3720 nM.
In the case of `COc1ccc(N(C)Cc2cc3n(n2)CCN(c2ccccc2F)C3=O)cc1` [Compound 105, 5-(2-fluorophenyl)-2-(((4-methoxyphenyl)(methyl)amino)methyl)-6,7-dihydropyrazolo[1,5-a]pyrazin-4(5H)-one], the “Fold selectivity (mGlu3 vs. mGlu5)” value at rat mGlu5 was greater than 34. Besides, the EC50 at rat mGlu5 (setting [1]) is greater than 30000 nM. Moreover, at rat mGlu3 (setting [2]), the IC50 was 871 nM. Also, the remaining activity at 30 µM at rat mGlu3 is 2.05%.
Turning to `CCN(Cc1cc2n(n1)CCN(c1ccc(F)c(F)c1)C2=O)c1ccc(OC)cc1` [Compound 168, 5-(3,4-difluorophenyl)-2-((ethyl(4-methoxyphenyl)amino)methyl)-6,7-dihydropyrazolo[1,5-a]pyrazin-4(5H)-one], at rat mGlu5, the “Fold selectivity (mGlu3 vs. mGlu5)” value is greater than 14. For the same compound, the EC50 at rat mGlu5 (setting [1]) is greater than 30000 nM. Further, the remaining activity at 30 µM at rat mGlu3 worked out at 1.95%. Further, the IC50 on rat mGlu3 (read-out: rat mGlu3 IC50) was 2120 nM.
As for `COc1cccc(NCc2cc3n(n2)[C@H](C)CN(c2ccc(F)cc2)C3=O)c1` [Compound 52, (R)-5-(4-fluorophenyl)-2-(((3-methoxyphenyl)amino)methyl)-7-methyl-6,7-dihydropyrazolo[1,5-a]pyrazin-4(5H)-one], the “Fold selectivity (mGlu3 vs. mGlu5)” value at rat mGlu5 was greater than 11. The EC50 at rat mGlu5 (setting [1]) was greater than 30000 nM. Further, at rat mGlu3 (setting [2]), the IC50 amounted to 2720 nM. Also, the remaining activity at 30 µM on rat mGlu3 is 4.06%.
Consider `O=C1c2cc(CNc3ccc(OC(F)F)cc3F)nn2CCN1c1ccc(Cl)cc1F` [Compound 149, 5-(4-chloro-2-fluorophenyl)-2-(((4-(difluoromethoxy)-2-fluorophenyl)amino)methyl)-6,7-dihydropyrazolo[1,5-a]pyrazin-4(5H)-one], for which, at rat mGlu5, the “Fold selectivity (mGlu3 vs. mGlu5)” value is listed as greater than 3. The EC50 on rat mGlu5 (setting [1]) is greater than 30000 nM. The remaining activity at 30 µM at rat mGlu3 stood at 25.8%. Further, the IC50 at rat mGlu3 (read-out: rat mGlu3 IC50) was greater than 10000 nM.
With `N#Cc1ccc(NCc2cc3n(n2)CCN(c2ccc(F)cc2)C3=O)cc1` [Compound 18, 4-(((5-(4-fluorophenyl)-4-oxo-4,5,6,7-tetrahydropyrazolo[1,5-a]pyrazin-2-yl)methyl)amino)benzonitrile], the “Fold selectivity (mGlu3 vs. mGlu5)” value at rat mGlu5 was greater than 6.2. Besides, the EC50 at rat mGlu5 (setting [1]) is greater than 30000 nM. The IC50 on rat mGlu3 (setting [2]) is 4780 nM. The remaining activity at 30 µM at rat mGlu3 was found to be 1.71%.
For `O=C1c2cc(CNc3ccccc3Cl)nn2CCN1c1ccc(F)cc1` [Compound 5, 2-(((2-chlorophenyl)amino)methyl)-5-(4-fluorophenyl)-6,7-dihydropyrazolo[1,5-a]pyrazin-4(5H)-one], on rat mGlu5, the Emax at 30 µM amounted to 65.4% and the “Fold selectivity (mGlu3 vs. mGlu5)” value was determined as 1.72. For the same compound, the EC50 on rat mGlu5 (setting [1]) stood at 2190 nM. Also, the half-maximal inhibitory concentration (IC50) on rat mGlu3 (setting [2]) was determined as 1270 nM. The remaining activity at 30 µM at rat mGlu3 was 2.08%.
Turning to `Cc1nc(N2CCn3nc(CNc4ccc(OC(F)F)cc4F)cc3C2=O)cs1` [Compound 140, 2-(((4-(difluoromethoxy)-2-fluorophenyl)amino)methyl)-5-(2-methylthiazol-4-yl)-6,7-dihydropyrazolo[1,5-a]pyrazin-4(5H)-one], the “Fold selectivity (mGlu3 vs. mGlu5)” value at rat mGlu5 was greater than 48. Also, at rat mGlu5 (setting [1]), the EC50 is greater than 30000 nM. Besides, the IC50 at rat mGlu3 (setting [2]) was found to be 624 nM. Also, the remaining activity at 30 µM on rat mGlu3 was found to be 2.43%.
Take `CC(Nc1ccccc1)c1cc2n(n1)CCN(c1ccc(F)cc1)C2=O` (centres unmarked) [Compound 170, 5-(4-fluorophenyl)-2-(1-(phenylamino)ethyl)-6,7-dihydropyrazolo[1,5-a]pyrazin-4(5H)-one]: on rat mGlu5, the “Fold selectivity (mGlu3 vs. mGlu5)” value is on record as greater than 10. The EC50 at rat mGlu5 (setting [1]) was greater than 30000 nM. Further, the IC50 on rat mGlu3 (setting [2]) amounted to 2850 nM. At rat mGlu3, the remaining activity at 30 µM was found to be 0.67%.
Consider `Cc1cccc(NCc2cc3n(n2)CCN(c2ccc(F)cc2)C3=O)c1` [Compound 8, 5-(4-fluorophenyl)-2-((m-tolylamino)methyl)-6,7-dihydropyrazolo[1,5-a]pyrazin-4(5H)-one], for which, on rat mGlu5, the Emax at 30 µM was found to be 79.4% and the “Fold selectivity (mGlu3 vs. mGlu5)” value is recorded as 4.41. Besides, the EC50 on rat mGlu5 (setting [1]) amounted to 5960 nM. Further, the IC50 at rat mGlu3 (setting [2]) amounted to 1350 nM. Besides, the remaining activity at 30 µM at rat mGlu3 turned out to be 2.85%.
In the case of `CS(=O)(=O)c1ccc(NCc2cc3n(n2)CCN(c2ccc(F)cc2)C3=O)cc1` [Compound 25, 5-(4-fluorophenyl)-2-(((4-(methylsulfonyl)phenyl)amino)methyl)-6,7-dihydropyrazolo[1,5-a]pyrazin-4(5H)-one], the “Fold selectivity (mGlu3 vs. mGlu5)” value on rat mGlu5 is reported as greater than 3. Further, the EC50 at rat mGlu5 (setting [1]) is greater than 30000 nM. The remaining activity at 30 µM at rat mGlu3 amounted to 66.9%. Also, on rat mGlu3 (read-out: rat mGlu3 IC50), the IC50 was greater than 10000 nM.

(Values after patent US9676782B2, “Substituted pyrazolo[1,5-a]pyrazines as negative allosteric modulators of metabotropic glutamate receptor 3” (Vanderbilt University, priority 2014, dated 2017).)
